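Growth conditions: 96-well plates. Treatment: test compound, 48 hours, 5 concentrations. Analysis: linear interpolation between bracketing concentrations; unreached endpoints set to highest concentration. Abbreviation: GI50, concentration required for 50% inhibition of growth.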 Calls of active or inactive are those of the source. Rule as the data show it: active = GI50 up to about 1.1 µM and inactive = higher.
Tests used:
Experiment in all cases: inhibition of tumour cell growth, NCI panel, 48 h
NCI-H23 = test system: NCI-H23
OVCAR-4 = test system: OVCAR-4
UO-31 = test system: UO-31
T47D = test system: T47D
ACHN = test system: ACHN
SK-MEL-28 = test system: SK-MEL-28
SW-620 = test system: SW-620
786-0 = test system: 786-0
NCI-H522 = test system: NCI-H522
K562 = test system: K562
HL-60 = test system: HL-60
MDA-MB-435 = test system: MDA-MB-435
M14 = test system: M14
SK-MEL-2 = test system: SK-MEL-2
MDA-MB-231 = test system: MDA-MB-231
A549 = test system: A549
COLO 205 = test system: COLO 205
SK-OV-3 = test system: SK-OV-3

SMILES: COc1ccc(C(=O)NCCN(C)C)c2nc3ccccc3cc12
- GI50 (NCI-H23): 0.366 µM (active)
- GI50 (OVCAR-4): 1.54 µM (inactive)
- GI50 (UO-31): 0.532 µM (active)
- GI50 (T47D): 2.22 µM (inactive)
- GI50 (ACHN): 0.21 µM (active)
- GI50 (SK-MEL-28): 2 µM (inactive)
- GI50 (SW-620): 0.383 µM (active)
- GI50 (786-0): 0.305 µM (active)
- GI50 (NCI-H522): 0.817 µM (active)
- GI50 (K562): 1.44 µM (inactive)
- GI50 (HL-60): 0.11 µM (active)
- GI50 (MDA-MB-435): 1.85 µM (inactive)
- GI50 (M14): 1.33 µM (inactive)
- GI50 (SK-MEL-2): 3.01 µM (inactive)
- GI50 (MDA-MB-231): 2.12 µM (inactive)
- GI50 (A549): 0.0962 µM (active)
- GI50 (COLO 205): 1.2 µM (inactive)
- GI50 (SK-OV-3): 1.56 µM (inactive)

SMILES: COC(=O)C1=C(OC(=O)/C(=C/c2ccc(Cl)cc2)c2ccc(Cl)cc2)C(C(=O)OC)[C@@]2(O)[C@@H](C(=O)OC)[C@H](C)C[C@@H]1[C@@H]2C(=O)OC (stereo partly specified)
- GI50 (NCI-H23): 25.2 µM (inactive)
- GI50 (OVCAR-4): 50.8 µM (inactive)
- GI50 (UO-31): > 100 µM (inactive)
- GI50 (T47D): > 74 µM (inactive)
- GI50 (ACHN): 25.9 µM (inactive)
- GI50 (SK-MEL-28): > 100 µM (inactive)
- GI50 (SW-620): 78.2 µM (inactive)
- GI50 (786-0): > 100 µM (inactive)
- GI50 (NCI-H522): 3.87 µM (inactive)
- GI50 (K562): 2.33 µM (inactive)
- GI50 (HL-60): > 100 µM (inactive)
- GI50 (MDA-MB-435): > 100 µM (inactive)
- GI50 (M14): > 100 µM (inactive)
- GI50 (SK-MEL-2): > 92.7 µM (inactive)
- GI50 (MDA-MB-231): > 71.9 µM (inactive)
- GI50 (A549): 11.5 µM (inactive)
- GI50 (COLO 205): > 76.4 µM (inactive)
- GI50 (SK-OV-3): > 100 µM (inactive)

SMILES: CCCCNc1nc2ccccc2c2c1ncn2CC(C)C
- GI50 (NCI-H23): > 100 µM (inactive)
- GI50 (OVCAR-4): > 100 µM (inactive)
- GI50 (UO-31): > 100 µM (inactive)
- GI50 (T47D): > 100 µM (inactive)
- GI50 (ACHN): > 100 µM (inactive)
- GI50 (SK-MEL-28): > 100 µM (inactive)
- GI50 (SW-620): > 100 µM (inactive)
- GI50 (786-0): > 100 µM (inactive)
- GI50 (NCI-H522): > 100 µM (inactive)
- GI50 (K562): > 100 µM (inactive)
- GI50 (HL-60): > 100 µM (inactive)
- GI50 (MDA-MB-435): > 100 µM (inactive)
- GI50 (M14): > 100 µM (inactive)
- GI50 (SK-MEL-2): > 100 µM (inactive)
- GI50 (MDA-MB-231): > 100 µM (inactive)
- GI50 (A549): > 100 µM (inactive)
- GI50 (COLO 205): > 100 µM (inactive)
- GI50 (SK-OV-3): > 100 µM (inactive)

SMILES: O=C(Cn1c(=O)oc2ccc(C(=O)c3ccc(F)cc3)cc21)c1ccccc1
- GI50 (NCI-H23): > 100 µM (inactive)
- GI50 (OVCAR-4): > 100 µM (inactive)
- GI50 (UO-31): 25.7 µM (inactive)
- GI50 (T47D): 93.5 µM (inactive)
- GI50 (ACHN): > 100 µM (inactive)
- GI50 (SK-MEL-28): > 100 µM (inactive)
- GI50 (SW-620): > 100 µM (inactive)
- GI50 (786-0): > 100 µM (inactive)
- GI50 (NCI-H522): > 100 µM (inactive)
- GI50 (K562): > 100 µM (inactive)
- GI50 (HL-60): > 100 µM (inactive)
- GI50 (MDA-MB-435): > 100 µM (inactive)
- GI50 (M14): > 100 µM (inactive)
- GI50 (SK-MEL-2): > 100 µM (inactive)
- GI50 (MDA-MB-231): > 100 µM (inactive)
- GI50 (A549): 55.8 µM (inactive)
- GI50 (COLO 205): 66.2 µM (inactive)
- GI50 (SK-OV-3): > 100 µM (inactive)

SMILES: O=c1c(F)cn(Cc2c(Cl)cccc2Cl)c(=O)n1Cc1c(Cl)cccc1Cl
- GI50 (NCI-H23): 27.7 µM (inactive)
- GI50 (OVCAR-4): 17.1 µM (inactive)
- GI50 (UO-31): 18.1 µM (inactive)
- GI50 (T47D): 20.7 µM (inactive)
- GI50 (ACHN): > 31.6 µM (inactive)
- GI50 (SK-MEL-28): > 31.6 µM (inactive)
- GI50 (SW-620): > 31.6 µM (inactive)
- GI50 (786-0): > 31.6 µM (inactive)
- GI50 (NCI-H522): 16 µM (inactive)
- GI50 (K562): 26.9 µM (inactive)
- GI50 (HL-60): 20 µM (inactive)
- GI50 (MDA-MB-435): 29.6 µM (inactive)
- GI50 (M14): > 31.6 µM (inactive)
- GI50 (SK-MEL-2): > 31.6 µM (inactive)
- GI50 (MDA-MB-231): > 31.6 µM (inactive)
- GI50 (A549): > 31.6 µM (inactive)
- GI50 (COLO 205): 19.9 µM (inactive)
- GI50 (SK-OV-3): > 31.6 µM (inactive)

SMILES: O=c1nc(N2CCN(c3ccccc3)CC2)ccn1C1OC(CO)C(O)C1O (stereo unspecified)
- GI50 (NCI-H23): 55.3 µM (inactive)
- GI50 (OVCAR-4): 27.1 µM (inactive)
- GI50 (UO-31): > 100 µM (inactive)
- GI50 (T47D): 22.5 µM (inactive)
- GI50 (ACHN): > 100 µM (inactive)
- GI50 (SK-MEL-28): > 100 µM (inactive)
- GI50 (SW-620): 82 µM (inactive)
- GI50 (786-0): 86.3 µM (inactive)
- GI50 (NCI-H522): 52.8 µM (inactive)
- GI50 (K562): 29.4 µM (inactive)
- GI50 (HL-60): 39.9 µM (inactive)
- GI50 (MDA-MB-435): 32.2 µM (inactive)
- GI50 (M14): 37.5 µM (inactive)
- GI50 (SK-MEL-2): > 100 µM (inactive)
- GI50 (MDA-MB-231): > 100 µM (inactive)
- GI50 (A549): > 100 µM (inactive)
- GI50 (COLO 205): 97.3 µM (inactive)
- GI50 (SK-OV-3): > 100 µM (inactive)

SMILES: C1CSC2=C(S1)SC1=C(S2)SC(=C2SC3=C(SC4=C(SCCS4)S3)S2)S1
- GI50 (NCI-H23): > 100 µM (inactive)
- GI50 (OVCAR-4): > 100 µM (inactive)
- GI50 (UO-31): > 100 µM (inactive)
- GI50 (T47D): > 100 µM (inactive)
- GI50 (ACHN): > 100 µM (inactive)
- GI50 (SK-MEL-28): > 100 µM (inactive)
- GI50 (SW-620): > 100 µM (inactive)
- GI50 (786-0): > 100 µM (inactive)
- GI50 (NCI-H522): > 100 µM (inactive)
- GI50 (K562): > 100 µM (inactive)
- GI50 (HL-60): 23.9 µM (inactive)
- GI50 (MDA-MB-435): > 100 µM (inactive)
- GI50 (M14): > 100 µM (inactive)
- GI50 (SK-MEL-2): 74.1 µM (inactive)
- GI50 (MDA-MB-231): > 100 µM (inactive)
- GI50 (A549): > 100 µM (inactive)
- GI50 (COLO 205): > 100 µM (inactive)
- GI50 (SK-OV-3): > 100 µM (inactive)

Source: ChEMBL document CHEMBL1201862, “PubChem BioAssay data set” (2004)
